{
  "source": "patent US20240034761A1",
  "about": "“REGENERATION OF MAMMALIAN TISSUES USING SYNTHETIC IMMODULINS” (priority 2022, published 2024)",
  "key": {"[1]": {"assay": "Plate binding of FITC-labelled heparin to immobilised biotinylated peptides", "conditions": "400 ng peptide/well, 1 ug FITC-heparin, PBS; normalized to immX3 peptide binding = 100"}, "[2]": {"biological_target": "T1, recombinant CD44 protein (Homo sapiens, UniProt P16070)", "T1 construct": "purchased Abcam, Waltham, MA", "T1 sequence (P16070 21-742, species assumed)": "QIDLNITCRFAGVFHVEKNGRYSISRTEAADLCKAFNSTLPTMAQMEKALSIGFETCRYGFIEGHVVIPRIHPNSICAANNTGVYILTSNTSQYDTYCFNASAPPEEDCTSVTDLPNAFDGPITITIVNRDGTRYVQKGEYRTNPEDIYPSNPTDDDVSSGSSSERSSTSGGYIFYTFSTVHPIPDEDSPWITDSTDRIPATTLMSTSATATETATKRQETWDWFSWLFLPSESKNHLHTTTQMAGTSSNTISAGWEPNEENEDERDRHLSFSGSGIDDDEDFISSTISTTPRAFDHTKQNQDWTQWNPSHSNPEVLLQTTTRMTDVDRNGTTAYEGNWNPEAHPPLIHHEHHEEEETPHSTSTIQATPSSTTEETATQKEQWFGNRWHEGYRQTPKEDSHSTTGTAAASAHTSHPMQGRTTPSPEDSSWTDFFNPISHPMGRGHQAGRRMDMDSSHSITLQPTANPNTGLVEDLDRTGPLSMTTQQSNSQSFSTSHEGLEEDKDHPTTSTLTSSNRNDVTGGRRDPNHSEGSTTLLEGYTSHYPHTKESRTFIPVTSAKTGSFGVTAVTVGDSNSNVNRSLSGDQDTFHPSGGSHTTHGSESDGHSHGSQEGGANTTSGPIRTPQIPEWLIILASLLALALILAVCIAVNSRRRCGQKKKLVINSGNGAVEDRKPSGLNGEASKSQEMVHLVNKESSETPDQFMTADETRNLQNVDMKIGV", "assay": "Third binding experiment: CD44 binding to peptide/holotransferrin/hyaluronan complexes", "conditions": "for CD44 immunoreactivity, 1.5 ug/w HMW-HA: immX3AVD + 1.5 ug HMW-HA set to 100 AU; for CD44 immunoreactivity, CONTROL: no hyaluronan, 100 ng/well CD44", "method": "(§1) Effects of pH, PIP2 and size classes: Streptavidin-coated 96-well plates (G-Biosciences, St. Louis, MO) were pre-loaded with biotinylated peptides [see Example 1] at 400 ng/well, at room temperature for 60 minutes. The plate was washed with PBS buffer and then 1 ug FITC-labelled heparin or hyaluronic acid (FITC-HMW-HA) in 100 uL PBS buffer was added per well (all tests done in quadruplicate). Incubation proceeded for 90 minutes at room temperature, followed by two PBS washes. The plate was read in a standard laboratory fluorometer (488/525 nm exitation/[…]) and the counts normalized for immX3 peptide binding=100. Values statistically above background are shown in bold font. **p<0.05 versus immX3AVD.\nA third binding experiment was done as described above using immX3AVD peptide with or without 10 ug/well holotransferrin (holoTf) plus either 10 ug/well LMW-HA or either 1.5 ug or 10 ug HMW-HA/well in the binding step, followed by a buffer wash step. 100 ng/well pure recombinant CD44 protein (Abcam, Waltham, MA) was then added to the indicated wells, incubated for 60 minutes at room temperature and the plate was washed with buffer. Anti-CD44 monoclonal antibody (Abcam, Waltham, MA) was added towells at 1:200, incubated for 60 minutes at room temperature and the plate was then washed and developed by secondary antibody and TMB detection as recommended by the manufacturer. CD44 immunoreactivity was expressed in arbitrary immunoreactivity units (AU), with **p<0.05 versus immx3AVD+1.5 ug HMW-HA control, which was set to=100 AU."}, "[3]": {"assay": "Second binding experiment: FITC-HMW-HA binding with holotransferrin, pH and cold competitors", "parameters": "key to FITC-HMW-HA binding, +cold LMW-HA / FITC-HMW-HA binding, +cold HMW-HA: fluorescence counts normalized to peptide binding control = 100", "conditions": "holotransferrin 10 ug/well; for FITC-HMW-HA binding, +cold HMW-HA: HMW-HA 10 ug/well; for FITC-HMW-HA binding, +cold LMW-HA: LMW-HA hexamer 10 ug/well; for FITC-HMW-HA binding, +cold PIP2: excess PIP2 500 ng/well", "method": "as §1\nA second binding experiment was done as above, but using either 6 mM sodium phosphate buffer pH 7.4 or sodium citrate buffer pH 5.2 in the presence of FITC-HMW-HA (1.5 ug/well), holotransferrin (10 ug/well) and excess PIP2 (500 ng/well), LMW-HA (hexamer; 10 ug/well) or HMW-HA (10 ug/well). **p<0.05 versus peptide binding control (=100);"}, "[4]": {"test_system": "Primary human T-cells pre-selected for recognizing GAD65 peptide antigen", "assay": "GAD65-specific primary T-cell differentiation on peptide-treated THP1-Dual cells", "format": "cell-based", "conditions": "peptide 0.66 uM, GAD65 1 ug/ml", "method": "Mammalian cell differentiation assays employed the THP1-Dual monocyte reporter cell line (Invivogen Inc, San Diego, CA) seeded at 2×10e5 cells per well in 96-well plates and cultured at 37 degrees C. in RPMI-1640 growth medium plus 10% fetal bovine serum and 1% penicillin/streptomycin. Cells were subsequently treated for 24 hours with 100 ng/ml Phorbol 12-myristate 13-acetate (PMA protocol; Cayman Chemical Company, Ann Arbor, MI). Peptide (0.33 uM or 0.66 uM, as indicated) was then added, and incubation continued for an additional 24 hours. Culture supernatants were assayed for CCL22. Plates with adherent cells were washed with PBS and assayed for immunoreactivity of surface markers such as CD169, Clec9a or Clec12a using fuorescent tag- or biotin-labeled anti-human antibodies purchased from Miltenyi Biotec (Auburn, CA) and the secondary detection reagent recommended by the manufacturer.\nAnother non-myeloid lineage was also tested. Primary human T-cells pre-selected for recognizing GAD65 peptide antigen, and the peptide antigen itself were purchased from Cellero LLC (Memphis, TN). THP1-Dual cells were treated with both GAD65 peptide antigen (1 ug/ml) and immodulin peptide (0.66 uM) using the protocol described in Example 2. After completion of the myeloid cell differentiation step (24 hours), supernatants were collected and 100,000 primary T-cells were added to each well in RPMI-1640 medium (100 uL per well). Plates were incubated for an additional 96 hours and cell extracts were prepared using CellLytic-M reagent (Sigma Chemical Co., St Louis, MO). Supernatants were assayed for CCL22, IL-10 and TGFbeta, and cell extracts assayed for FoxP3, all by ELISA using reagents from R&D Systems, Minneapolis, MN. The results are shown in the table below (**p<0.05 vs immX3AVD, set to=100): […]"}, "[5]": {"test_system": "THP1-Dual monocyte reporter cell line", "assay": "THP1-Dual myeloid cell differentiation assay (PMA protocol)", "format": "cell-based, human", "conditions": "PMA 24 h, then peptide 0.33 uM or 0.66 uM 24 h", "how_it_was_run": "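THP1-Dual monocytes were primed for 24 h with 100 ng/ml PMA, then given peptide (0.33 uM or 0.66 uM) for a further 24 h at 37 degrees C. CCL22 was measured in the supernatants. Adherent cells were stained for surface markers such as CD169, Clec9a or Clec12a with labeled anti-human antibodies.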"}, "[6]": {"test_system": "Osteoblast cell line MC3T3E1", "assay": "MC3T3E1 osteoblast differentiation, alkaline phosphatase", "format": "cell-based", "conditions": "peptide 0.66 uM, 5 days, immX3AVD = 100", "method": "Yet another non-myeloid lineage was tested. Osteoblast cell line MC3T3E1 was purchased from ATCC (Manassas, VA) and grown in 96-well plates in alpha-MEM medium supplemented with 50 ug/ml ascorbic acid and 5 mM beta-glycerophosphate. Peptides were added and incubation proceeded for 5 days. Cells were washed with PBS buffer and extracts prepared using 100 uL 1X RIPA buffer (Cayman Chemical Company; Ann Arbor, MI) per well. Alkaline phosphatase was measured using 0.37 mg/ml 4-nitrophenyl phosphate in DEA buffer (both reagents purchased from Cayman Chemical Company) by measuring the slope of absorbance at 405 nm using a spectrophotometer. 10 uL of RIPA extract was used for each assay. Separately, protein concentration of extract was measured using a commercial kit. Values were corrected for protein concentration. Results are shown below (**p<0.05 vs immX3AVD=100): […]"}},
  "note": "Marks after values point to notes of the source that are not given here. Peptide text beside a SMILES is read from it.",
  "data": [
    {"smiles": "CC(C)[C@H](NC(=O)[C@H](C)NC(=O)[C@H](Cc1c[nH]c2ccccc12)NC(=O)[C@H](CS)NC(=O)[C@H](Cc1ccccc1)NC(=O)CNC(=O)[C@H](CCCNC(=N)N)NC(=O)[C@H](CCCCN)NC(=O)[C@H](CCCNC(=N)N)NC(=O)CNC(=O)[C@H](CCCCN)NC(=O)[C@H](CO)NC(=O)[C@@H]1CCCN1C(=O)[C@H](CCCNC(=N)N)NC(=O)[C@H](CS)NC(=O)[C@H](CCC(N)=O)NC(=O)[C@H](CCCCN)NC(=O)[C@H](CCCCN)NC(=O)[C@H](CCCCN)NC(=O)[C@H](Cc1ccc(O)cc1)NC(=O)[C@H](Cc1ccccc1)NC(=O)CNC(=O)[C@H](CCCCN)NC(=O)[C@@H](N)CCCCN)C(=O)N[C@@H](CC(=O)O)C(=O)O", "note": "[immX3AVD] (H-KKGFYKKKQCRPSKGRKRGFCWAVD-OH)", "values": [
      {"measurement": "Heparin binding (fluorescence counts)", "setting": "[1]", "value": "100.0 ± 4.7"},
      {"measurement": "CD44 immunoreactivity, 10 ug/w HMW-HA", "setting": "[2]; pH 5.2", "value": "105.1 ± 11.4", "unit": "AU"},
      {"measurement": "CD44 immunoreactivity, 10 ug/w LMW-HA", "setting": "[2]; pH 5.2", "value": "102.6 ± 17.9", "unit": "AU"},
      {"measurement": "CD44 immunoreactivity, 1.5 ug/w HMW-HA", "setting": "[2]; pH 5.2", "value": "100.0 ± 4.6", "unit": "AU"},
      {"measurement": "CD44 immunoreactivity, CONTROL", "setting": "[2]; pH 5.2", "value": "13.2 ± 22.0** AU"},
      {"measurement": "CD44 immunoreactivity, 10 ug/w HMW-HA", "setting": "[2]; pH 7.4", "value": "101.1 ± 4.9", "unit": "AU"},
      {"measurement": "CD44 immunoreactivity, 10 ug/w LMW-HA", "setting": "[2]; pH 7.4", "value": "103.0 ± 19.4", "unit": "AU"},
      {"measurement": "CD44 immunoreactivity, 1.5 ug/w HMW-HA", "setting": "[2]; pH 7.4", "value": "100.0 ± 15.5", "unit": "AU"},
      {"measurement": "CD44 immunoreactivity, CONTROL", "setting": "[2]; pH 7.4", "value": "19.6 ± 13.0** AU"},
      {"measurement": "FITC-HMW-HA binding, CONTROL", "setting": "[3]; pH 5.2", "value": "140.0 ± 16.7**"},
      {"measurement": "FITC-HMW-HA binding, +cold HMW-HA", "setting": "[3]; pH 5.2", "value": "12.5 ± 7.1**"},
      {"measurement": "FITC-HMW-HA binding, +cold LMW-HA", "setting": "[3]; pH 5.2", "value": "100.6 ± 15.9"},
      {"measurement": "FITC-HMW-HA binding, +cold PIP2", "setting": "[3]; pH 5.2", "value": "92.2 ± 29.4"},
      {"measurement": "FITC-HMW-HA binding, +cold HMW-HA", "setting": "[3]; pH 7.4", "value": "18.5 ± 3.7**"},
      {"measurement": "FITC-HMW-HA binding, +cold LMW-HA", "setting": "[3]; pH 7.4", "value": "92.6 ± 11.8**"},
      {"measurement": "FITC-HMW-HA binding, +cold PIP2", "setting": "[3]; pH 7.4", "value": "10.4 ± 8.2**"},
      {"measurement": "FITC-HMW-HA binding, CONTROL", "setting": "[3]; pH 7.4, peptide binding control = 100", "value": "100.0 ± 8.3"},
      {"measurement": "FoxP3 (AU)", "setting": "[4]; cell extracts, immX3AVD = 100", "value": "100.0 ± 20.5", "unit": "AU"},
      {"measurement": "CCL22", "setting": "[4]; supernatant", "value": "88.8 ± 13.6", "unit": "pg/mL"},
      {"measurement": "IL-10", "setting": "[4]; supernatant", "value": "1331 ± 94.3", "unit": "pg/mL"},
      {"measurement": "TGFb", "setting": "[4]; supernatant", "value": "131.4 ± 41.4", "unit": "pg/mL"},
      {"measurement": "CD169+ (AU)", "setting": "[5]; relative to immX3AVD = 100", "value": 100, "unit": "AU"},
      {"measurement": "Clec12A(AU)", "setting": "[5]; relative to immX3AVD = 100", "value": 100, "unit": "AU"},
      {"measurement": "CCL22", "setting": "[5]; culture supernatant", "value": "282.4 ± 18.4", "unit": "pg/mL"},
      {"measurement": "Alk. Phos. Activity", "setting": "[6]; compound added: None", "value": "100.0 ± 0.5"},
      {"measurement": "Alk. Phos. Activity", "setting": "[6]; plus 2 uM Ciprofibrate", "value": "127.2 ± 2.7**"},
      {"measurement": "Alk. Phos. Activity", "setting": "[6]; plus 2 uM GW 3965", "value": "59.1 ± 4.3**"},
      {"measurement": "Alk. Phos. Activity", "setting": "[6]; plus 2 uM GW 501516", "value": "168.7 ± 3.0**"},
      {"measurement": "Alk. Phos. Activity", "setting": "[6]; plus 1 mM D-raffinose", "value": "134.6 ± 4.6**"},
      {"measurement": "Alk. Phos. Activity", "setting": "[6]; plus 1 mM L-ornithine", "value": "159.7 ± 4.4**"}
    ]}
  ]
}
